According to EP2899280A1, “Process for the enzymatic production of oligo-/polyesters” (Ernst-Moritz-Arndt-Universität Greifswald, priority 2014, dated 2015):

Experiment: Autohydrolysis of ε-CL (pH-STAT titration)
Type: physicochemical
Details: Distilled water (pH 7.0), 30 °C, based on 100 mM ε-CL as 100 %
Method: All measurements were done with the 877 Titrino Plus from Metrohm (Filderstadt, Germany).
Using the pH-STAT, the autohydrolysis of ε-CL at different temperatures and pH values was determined. Furthermore, it was investigated whether CAL-A is able to hydrolyze ε-CL in an aqueous reaction system. The Bacillus subtilis esterase 2 (BS2) served as positive control in the hydrolysis of ε-caprolactone to 6-hydroxycaproic acid leading to a measureable pH change in the pH-STAT.
For the determination of autohydrolysis, 100 mM ε-CL (Sigma-Aldrich, St- Louis, United States; 97 % purity) were dissolved in 20 ml Tris-HCl buffer (20 mM, pH 7.5) or 20 ml distilled water. The measurement was carried out at 25°C and 30°C over 15 min. For titration, 0.1 N NaOH was used to maintain the pH value constant.

For `O=C1CCCCCO1` [ε-CL, ε-caprolactone], the “Conversion [%] (autohydrolysis)” value was 1.075 ± 0,00090%.
